Laboratory results from patent US4386094A, “4-Lower alkyl-3-phenoxypyridine-1-oxide and a method for its production” (priority 1980, dated 1983).
Where two headings read alike, the source gives them in different places.

Experiments:
[1] = Rotorod toxicity test (Tox), mice; format: in vivo, male Carworth Farms No. 1 mice
Method: The Rotorod test is used to evaluate neurotoxicity. The animal is placed on a 1 inch diameter knurled plastic rod rotating at 6 rpm. Normal mice can remain on a rod rotating at this speed indefinitely. Neurologic toxicity is defined as the failure of the animal to remain on the rod for 1 minute, and is expressed as:

[2] = Rotorod toxicity test (Tox), rats; format: in vivo; details: for TD50: rat, in vivo, po
[3] = system: Maximal electroshock seizures; assay: MES--Maximal Electroshock Seizure Test, mice; format: in vivo, male Carworth Farms No. 1 mice; details: Mus musculus
Excerpt: Maximal electroshock seizures are elicited with a 60 cycle alternating current of 50 mA intensity (5-7 times that necessary to elicit minimal electroshock seizures) delivered for 0.2 sec via corneal electrodes. A drop of 0.9% saline is instilled in the eye prior to application of the electrodes in order to prevent the death of the animal. Abolition of the hind limb tonic extension component of the seizure is defined as protection and results are expressed as:

[4] = system: Maximal electroshock seizures; assay: MES--Maximal Electroshock Seizure Test, rats; format: in vivo; details: Rattus norvegicus, oral
Method: The utility of the aforementioned compound as an anticonvulsant is determined by generating a compound profile using three tests. The tests employed are described in Epilepsia 19 (1978) 409-428 which is incorporated by reference. Maximal electroshock seizures are elicited with a 60 cycle alternating current of 50 mA intensity (5-7 times that necessary to elicit minimal electroshock seizures) delivered for 0.2 sec via corneal electrodes. A drop of 0.9% saline is instilled in the eye prior to application of the electrodes in order to […]. Abolition of the hind limb tonic extension component of the seizure is defined as protection and results are expressed as: number of animals protected/number of animals tested.

[5] = system: Pentylenetetrazol (Metrazol) seizure; assay: sc Met--Subcutaneous Pentylenetetrazol (Metrazol) Seizure Threshold Test, mice; format: in vivo, male Carworth Farms No. 1 mice; details: for ED50 sc Met: intraperitoneal
Method: (§1) The utility of the aforementioned compound as an anticonvulsant is determined by generating a compound profile using three tests. The tests employed are described in Epilepsia 19 (1978) 409-428 which is incorporated by reference.
The tests were performed by the National Institute of Neurological and Communicative Disorders and Stroke and used male Carworth Farms No. 1 mice. The compounds are employed at at least 3 dose levels (30, 100, 300 mg/kg) in the following three tests.
sc Met--Subcutaneous Pentylenetetrazol (Metrazol®) Seizure Threshold Test
(§2) The animal is observed for 30 minutes. Failure to observe even a threshold seizure (a single episode of clonic spasms of at least 5 sec duration) is defined as protection and the results are expressed as: […]
(§3) number of animals protected/number of animals tested.

[6] = system: Pentylenetetrazol (Metrazol) seizure; assay: sc Met--Subcutaneous Pentylenetetrazol (Metrazol) Seizure Threshold Test, rats; format: in vivo; details: oral
Method: as §1, §2, §3

Bicuculline = Bicuculline test, mice; format: in vivo
Picrotoxin = Picrotoxin test, mice; format: in vivo; details: intraperitoneal
Strychnine = Strychnine test, mice; format: in vivo; details: intraperitoneal
[7] = mouse, in vivo, po; cited from earlier work
[8] = rat, in vivo, po; cited from earlier work

Compound	TD50 [2]	ED50 ([3]; oral, read-out: MES-ED50)	ED50 [4]	ED50 sc Met [5]	sc Met-ED50 ([5]; oral)	sc Met-ED50 [6]	ED50 Bicuculline (Bicuculline; intraperitoneal, mice)	ED50 Picrotoxin (Picrotoxin)	also measured
Cc1cc[n+]([O-])cc1Oc1ccccc1 [4-METHYL-3-PHENOXYPYRIDINE-1-OXIDE, 4-methyl-3-phenoxypyridine-1-oxide]	76.1 mg/kg	85.3 mg/kg	11.2 mg/kg	Potentiates	Potentiates	Potentiates	Potentiates	Potentiates	TD50 ([1]; mouse, in vivo, ip): 76.2 mg/kg; TD50 ([1]; mouse, in vivo, po): 296 mg/kg; ED50 ([3]; ip, intraperitoneal, read-out: ED50 MES): 23.2 mg/kg; ED50 Strychnine (Strychnine): Ineffective
NC(=O)N1c2ccccc2C=Cc2ccccc21 [CARBAMAZEPINE]	–	–	8.5 mg/kg	Potentiates	–	Variable	–	–	ROTOROD TD50 ([2]; oral, rats): 813.06 mg/kg; Max. Prot. (Bicuculline) (Bicuculline; intraperitoneal, mice, at 50-130 mg/kg): 62.5%
CCC1(c2ccccc2)NC(=O)N(C)C1=O (stereo not drawn) [MEPHENYTOIN]	–	37 mg/kg	10 mg/kg	–	–	–	–	–	TD50 ([1]; intraperitoneal, mice): 153.82 mg/kg; ED50 ([5]; Mus musculus, oral): 53 mg/kg; ED50 ([6]; Rattus norvegicus): 105 mg/kg; ED50 (Bicuculline; Mus musculus, ip, read-out: ED50 Bicuculline): 124 mg/kg; Max. Prot. (Strychnine) (Strychnine; at 70-150 mg/kg): 50%; ROTOROD TD50 [7]: 97.0 mg/kg; ROTOROD TD50 [8]: 143 mg/kg
O=C1NC(=O)C(c2ccccc2)(c2ccccc2)N1 [PHENYTOIN]	> 3000 mg/kg	–	–	Potentiates	Ineffective	Ineffective	Potentiates	Potentiates	Max. Prot. (Strychnine) (Strychnine; at 55-100 mg/kg): 50%
